Reference: ChEMBL document CHEMBL1201862, “PubChem BioAssay data set” (2004)
The source made the active and inactive calls.

Assays:
[1] = biological target: FAD-linked sulfhydryl oxidase ALR (Homo sapiens, UniProt P55789); assay: ALR-catalysed DTT oxidation blockers – biochemical, H2O2 detection, luminescence, cherry-pick, dose response (AID 493248)
[2] = biological target: T1, Carboxy-terminal domain RNA polymerase II polypeptide A small phosphatase 1 (Homo sapiens, UniProt Q9GZU7); assay: CTDSP1 inhibitors, concentration-response, biochemical, absorbance readout, ultra-high-throughput screen actives (AID 540297); format: functional
T1 sequence (Q9GZU7 whole entry): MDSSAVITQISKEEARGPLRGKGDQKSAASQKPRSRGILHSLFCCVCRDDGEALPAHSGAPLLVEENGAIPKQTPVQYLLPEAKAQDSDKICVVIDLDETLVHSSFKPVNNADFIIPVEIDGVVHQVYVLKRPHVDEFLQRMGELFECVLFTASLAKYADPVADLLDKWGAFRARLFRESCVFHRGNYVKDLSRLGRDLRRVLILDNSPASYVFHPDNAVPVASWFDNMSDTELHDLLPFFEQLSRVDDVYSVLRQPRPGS

[3] = biological target: Eukaryotic translation initiation factor 4E (Mus musculus, UniProt P63073); assay: blockers of eIF4G binding by eIF4E – biochemical, TR-FRET, dose response (AID 855); format: functional;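 note: potency for disrupting eIF4E binding to eIF4GI seen as loss of FRET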
Eukaryotic translation initiation factor 4E, sequence (P63073 whole entry): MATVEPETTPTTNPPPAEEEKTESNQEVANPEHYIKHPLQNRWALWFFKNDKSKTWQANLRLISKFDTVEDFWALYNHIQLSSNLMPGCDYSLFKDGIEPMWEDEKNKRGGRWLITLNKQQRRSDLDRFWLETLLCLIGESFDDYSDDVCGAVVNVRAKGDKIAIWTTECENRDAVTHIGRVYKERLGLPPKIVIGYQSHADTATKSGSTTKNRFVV

[4] = system: Streptococcus sp. 'group A'; assay: Streptococcus pyogenes SK(-)GAS viability under kanamycin – luminescence, BacTiterGlo, confirmation, counter-screen for streptokinase expression inhibitor project, dose response (AID 1900); format: functional, organism-based
Streptokinase A = biological target: T2, Streptokinase A (Streptococcus pyogenes serotype M1, UniProt P10520); assay: viability-normalized secreted streptokinase activity reduction – plasminogen activation absorbance, OD405, dose response (AID 1914); format: functional, Streptococcus pyogenes M1 GAS;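 note: secreted streptokinase activity via plasminogen activation per viability signal from cell pellet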
T2 sequence (P10520 whole entry): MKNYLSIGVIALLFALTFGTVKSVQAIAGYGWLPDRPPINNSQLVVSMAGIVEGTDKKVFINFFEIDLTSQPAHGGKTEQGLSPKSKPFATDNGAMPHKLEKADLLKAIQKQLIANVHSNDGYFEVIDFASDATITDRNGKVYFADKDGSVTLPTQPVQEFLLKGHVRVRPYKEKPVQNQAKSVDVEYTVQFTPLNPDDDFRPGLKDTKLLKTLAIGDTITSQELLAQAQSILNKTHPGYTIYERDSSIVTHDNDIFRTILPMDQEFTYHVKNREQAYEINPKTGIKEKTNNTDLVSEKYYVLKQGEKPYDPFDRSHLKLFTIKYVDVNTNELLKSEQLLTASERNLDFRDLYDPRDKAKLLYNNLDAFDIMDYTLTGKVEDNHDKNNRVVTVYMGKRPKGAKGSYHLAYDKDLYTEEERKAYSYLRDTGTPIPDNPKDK

[5] = microbe, parasite or virus in culture; format: functional; conditions: Mycobacterium tuberculosis
Streptococcus = assay: GAS UMAA2166 growth inhibition – luminescence, BacTiterGlo, counter-screen for streptokinase expression inhibitor project, dose response (AID 1915); format: functional, organism-based;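 note: potency for reduction of bacterial viability or growth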
[6] = biological target: T3, Ubiquitin-conjugating enzyme E2 N (Homo sapiens, UniProt P61088); format: functional;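 note: Dose-response confirmation in a TR-FRET assay detecting UBC13-driven polyubiquitin chain formation, inhibition measured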
T3 sequence (P61088 whole entry): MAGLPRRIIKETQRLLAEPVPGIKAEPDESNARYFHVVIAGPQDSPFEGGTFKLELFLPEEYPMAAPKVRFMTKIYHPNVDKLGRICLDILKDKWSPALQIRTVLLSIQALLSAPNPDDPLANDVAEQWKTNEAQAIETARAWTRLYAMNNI

BJ [7] = assay: BJ-TERT fibroblast viability loss – cell-based, RAS-independent, luminescence, dose response (AID 1933); format: functional; conditions: Homo sapiens
BJ [8] = assay: cells; format: functional, cell-based; conditions: Homo sapiens
BJ [9] = assay: BJ-TERT-LT-ST fibroblast viability loss – cell-based, RAS-independent, luminescence, dose response (AID 1935); format: functional; conditions: Homo sapiens;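 note: BJ fibroblasts immortalized with TERT plus LT and ST oncogenes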
[10] = DRD fibroblast viability loss – cell-based, non-viral oncogenic, luminescence, dose response (AID 1934); format: functional; conditions: Homo sapiens
BJ [11] = assay: growth inhibition of engineered Ras-driven BJ cells – cell-based, alamar blue fluorescence, cherrypicked samples, dose response (AID 2631); format: functional; conditions: Homo sapiens;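 note: confirmatory dose-response assay in RAS-dependent BJ fibroblasts engineered with TERT, LT and ST, with cytotoxicity read by fluorescence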
[12] = Luminescence Cell-Based Dose Confirmation HTS to Identify Activators of 5'UTR Stem-Loop Driven Alpha-Synuclein mRNA Translation in H4 Neuroglioblastoma Cells. [Related pubchem assays: 1829 (Project Summary), 1814 (Primary HTS)]; format: functional
[13] = Luminescence Cell-Based Dose Response HTS to Identify Activators of Luciferase Translation or Activity in H4 […] Cells. [Related pubchem assays: 1829 (Project Summary), 1814 (Primary HTS)]; format: functional
H4 = assay: Luminescence Cell-Based Dose Response HTS to Identify Activators of 5'UTR Stem-Loop Driven Prion Protein mRNA Translation in H4 Neuroglioblastoma Cells. [Related pubchem assays: 1829 (Project Summary), 1814 (Primary HTS)]; format: functional; conditions: Homo sapiens
Cytochrome P450 1A2 = biological target: T4, Cytochrome P450 1A2 (Homo sapiens, UniProt P05177);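 note: PubChem cytochrome P450 panel assay, CYP1A2 panel member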
T4 sequence (P05177 whole entry): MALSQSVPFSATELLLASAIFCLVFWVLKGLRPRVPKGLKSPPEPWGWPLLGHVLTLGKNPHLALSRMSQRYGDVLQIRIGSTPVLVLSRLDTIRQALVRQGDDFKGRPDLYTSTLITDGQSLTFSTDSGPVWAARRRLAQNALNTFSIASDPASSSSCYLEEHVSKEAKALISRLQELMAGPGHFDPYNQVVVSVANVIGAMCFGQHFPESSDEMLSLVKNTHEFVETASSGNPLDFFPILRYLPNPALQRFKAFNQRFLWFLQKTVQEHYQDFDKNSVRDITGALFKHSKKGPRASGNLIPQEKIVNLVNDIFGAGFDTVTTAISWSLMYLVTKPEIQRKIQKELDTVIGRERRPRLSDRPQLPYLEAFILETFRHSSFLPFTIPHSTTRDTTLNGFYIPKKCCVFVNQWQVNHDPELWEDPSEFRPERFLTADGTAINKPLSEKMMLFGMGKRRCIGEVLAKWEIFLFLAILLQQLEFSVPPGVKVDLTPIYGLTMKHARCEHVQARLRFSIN

Cytochrome P450 2C9 [14] = biological target: T5, Cytochrome P450 2C9 (Homo sapiens, UniProt P11712)
T5 sequence (P11712 whole entry): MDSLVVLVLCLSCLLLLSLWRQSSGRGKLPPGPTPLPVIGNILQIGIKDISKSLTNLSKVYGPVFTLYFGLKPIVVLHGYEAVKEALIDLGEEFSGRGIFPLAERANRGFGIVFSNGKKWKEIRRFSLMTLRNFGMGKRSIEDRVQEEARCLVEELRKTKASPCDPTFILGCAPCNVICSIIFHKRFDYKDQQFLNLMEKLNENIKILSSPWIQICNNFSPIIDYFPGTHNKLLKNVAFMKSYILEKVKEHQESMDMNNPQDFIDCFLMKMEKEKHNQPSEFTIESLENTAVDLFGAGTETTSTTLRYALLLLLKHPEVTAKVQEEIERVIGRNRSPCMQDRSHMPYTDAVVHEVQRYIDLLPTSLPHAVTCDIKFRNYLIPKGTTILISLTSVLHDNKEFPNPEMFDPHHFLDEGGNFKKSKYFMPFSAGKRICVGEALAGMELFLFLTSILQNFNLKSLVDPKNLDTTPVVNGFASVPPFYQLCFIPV

[15] = viability of PTEN-deleted HCT116 cells – cell-based, HCT116 PTEN knockout, dose response (AID 1047); format: functional;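 note: HCT116 colon tumor cells with PTEN knocked out; cells exposed to compound for 60 hours before readout; potency for loss of cell viability measured by luminescence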
[16] = viability of HCT116 lacking mutant beta-catenin – cell-based, human colon tumor, dose response (AID 1045); format: functional;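 note: HCT116 colon tumor cells with beta catenin knocked out; cells exposed to compound for 60 hours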
Cytochrome P450 2D6 = Cytochrome P450 2D6 (Homo sapiens, UniProt P10635);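 note: CYP2D6 member of a cytochrome P450 panel assay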
Cytochrome P450 2D6, sequence (P10635 whole entry): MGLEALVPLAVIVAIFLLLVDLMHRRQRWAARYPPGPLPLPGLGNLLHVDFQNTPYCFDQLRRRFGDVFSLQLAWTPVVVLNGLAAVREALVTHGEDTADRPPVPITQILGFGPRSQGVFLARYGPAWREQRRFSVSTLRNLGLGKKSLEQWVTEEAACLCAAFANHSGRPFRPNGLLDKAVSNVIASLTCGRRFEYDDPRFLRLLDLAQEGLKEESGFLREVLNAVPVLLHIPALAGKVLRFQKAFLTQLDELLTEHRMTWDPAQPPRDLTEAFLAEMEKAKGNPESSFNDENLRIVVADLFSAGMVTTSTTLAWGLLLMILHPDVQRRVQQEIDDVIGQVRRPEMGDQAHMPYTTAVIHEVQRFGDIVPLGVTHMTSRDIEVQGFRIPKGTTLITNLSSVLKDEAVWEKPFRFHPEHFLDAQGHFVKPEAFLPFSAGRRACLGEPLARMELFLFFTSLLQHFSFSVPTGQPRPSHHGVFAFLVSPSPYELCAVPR

Cytochrome P450 3A4 = Cytochrome P450 3A4 (Homo sapiens, UniProt P08684);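 note: CYP3A4 tested as one member of a cytochrome P450 panel screen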
Cytochrome P450 3A4, sequence (P08684 whole entry): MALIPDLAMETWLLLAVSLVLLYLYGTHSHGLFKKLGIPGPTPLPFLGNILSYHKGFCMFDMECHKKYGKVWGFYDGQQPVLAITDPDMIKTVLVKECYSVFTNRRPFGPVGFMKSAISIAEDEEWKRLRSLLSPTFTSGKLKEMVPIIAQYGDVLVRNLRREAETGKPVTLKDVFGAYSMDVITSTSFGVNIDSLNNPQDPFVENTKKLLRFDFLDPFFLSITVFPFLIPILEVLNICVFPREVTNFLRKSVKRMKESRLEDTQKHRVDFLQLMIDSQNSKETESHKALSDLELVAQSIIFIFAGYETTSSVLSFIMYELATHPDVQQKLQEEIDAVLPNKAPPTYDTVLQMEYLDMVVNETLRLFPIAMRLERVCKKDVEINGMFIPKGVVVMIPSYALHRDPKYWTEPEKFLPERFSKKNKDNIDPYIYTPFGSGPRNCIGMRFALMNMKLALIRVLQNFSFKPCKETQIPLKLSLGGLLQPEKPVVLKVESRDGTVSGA

Cytochrome P450 2C19 = Cytochrome P450 2C19 (Homo sapiens, UniProt P33261); assay: Cytochrome panel assay with activity outcomes. Panel member name: p450-cyp2c19 Compounds with AC50 equal or less than 10 uM are considered active; format: functional
Cytochrome P450 2C19, sequence (P33261 whole entry): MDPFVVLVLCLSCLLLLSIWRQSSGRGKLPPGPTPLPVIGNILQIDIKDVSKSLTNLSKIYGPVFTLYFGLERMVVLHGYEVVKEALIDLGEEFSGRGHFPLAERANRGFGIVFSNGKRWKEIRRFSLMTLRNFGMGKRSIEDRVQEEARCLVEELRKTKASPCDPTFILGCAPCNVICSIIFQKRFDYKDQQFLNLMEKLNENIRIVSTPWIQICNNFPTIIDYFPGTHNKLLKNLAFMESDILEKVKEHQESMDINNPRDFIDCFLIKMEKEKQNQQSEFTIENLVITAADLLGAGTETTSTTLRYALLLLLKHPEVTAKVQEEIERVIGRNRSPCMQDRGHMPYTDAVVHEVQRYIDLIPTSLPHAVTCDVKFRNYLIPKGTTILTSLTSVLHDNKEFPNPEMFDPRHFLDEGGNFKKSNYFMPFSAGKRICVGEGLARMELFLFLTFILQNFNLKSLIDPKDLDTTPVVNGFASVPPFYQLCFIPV

[17] = Luminescence Cell-Based Dose Retest to Confirm Inhibitors of Cancer Stem Cells. [Related pubchem assays (depositor defined):AID2717, AID2721]; format: functional; conditions: Homo sapiens
Cytochrome P450 2C9 [18] = biological target: T5, Cytochrome P450 2C9; remark: listed apart in the source
Nonstructural protein 1 = Nonstructural protein 1 (Influenza A virus, UniProt Q194T2); format: functional, Influenza A virus (A/California/07/2009(H1N1))
Nonstructural protein 1, sequence (Q194T2 whole entry): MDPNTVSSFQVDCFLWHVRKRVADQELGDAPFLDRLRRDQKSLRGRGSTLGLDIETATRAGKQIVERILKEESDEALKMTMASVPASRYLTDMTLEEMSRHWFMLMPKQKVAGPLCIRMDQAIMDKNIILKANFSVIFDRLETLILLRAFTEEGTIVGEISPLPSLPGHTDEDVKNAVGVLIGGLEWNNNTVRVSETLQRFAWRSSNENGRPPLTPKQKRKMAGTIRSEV

FAD-linked sulfhydryl oxidase ALR, sequence (P55789 whole entry, the tested form may be a part): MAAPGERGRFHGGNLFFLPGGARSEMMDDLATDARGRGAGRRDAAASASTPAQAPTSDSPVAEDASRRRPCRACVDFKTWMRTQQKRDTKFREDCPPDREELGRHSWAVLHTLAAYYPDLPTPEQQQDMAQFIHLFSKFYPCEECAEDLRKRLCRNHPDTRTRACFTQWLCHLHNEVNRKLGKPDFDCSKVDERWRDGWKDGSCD

## COC(=O)c1[nH]c2ccc(C)cc2c1NS(=O)(=O)c1ccc(F)cc1
[1]
  AC50: 1.81 µM (active)

## C/C(=N\NC(=O)c1cccc(N/N=C(\C)c2ccncc2)c1)c1ccncc1
[1]
  AC50: 0.205 µM (active)

## Cc1nnc(SCC(=O)Nc2nsc(-c3ccc(Cl)cc3)n2)s1
[2]
  IC50: 15.2 µM (active)

## COc1ccc2c(c1)CC[C@@H]1[C@@H]2CC[C@]2(C)C(=O)CC[C@@H]12
[3]
  IC50: > 64 µM (inactive)

## C/C(=N\NC(=S)NCC(C)(C)C)c1cc(F)cc(F)c1O
[4]
  EC50: 1.32 µM (active)
Streptokinase A
  EC50: 0.501 µM (active)
[5]
  CC50: 22.9 µM (active)
Streptococcus
  EC50: 2.68 µM (active)

## CC(=O)Oc1ccc2c(c1)OC(c1ccccc1)CC21CC(C)(C)NC(=S)N1 (stereo not drawn)
[3]
  IC50: > 64 µM (inactive)

## Cc1ccc2c(c1)C1CN(C)CCC1N2C(=O)/C(C#N)=C/c1ccc2c(c1)OCO2 (stereo not drawn)
[6]
  IC50: > 20 µM (inactive)

## CC1CCCCC1N(C)C1CCN(C(=O)CNC(=O)/C=C/c2cccc(Cl)c2)CC1 (stereo not drawn)
BJ [7]
  EC50: 2.72 µM (active)
BJ [8]
  EC50: 2.79 µM (active)
BJ [9]
  EC50: 2.63 µM (inconclusive)
[10]
  EC50: 3.46 µM (active)
BJ [11]
  EC50: 1.51 µM (active)

## Cc1ccc(-c2nn(-c3ccccc3)cc2CN(Cc2ccccc2)C(=O)CCC(=O)O)o1
[1]
  AC50: 0.471 µM (active)

## COc1cc(OC)cc(C(=O)Nc2ccccc2C(=O)N2CCCC2)c1
[12]
  EC50: > 120 µM (not active)
[13]
  EC50: > 120 µM (not active)
H4
  EC50: > 120 µM (not active)
Cytochrome P450 1A2
  AC50: 14.1 µM (inconclusive)
Cytochrome P450 2C9 [14]
  AC50: inconclusive

## Clc1ccc(-c2ccc(/C=N/Nc3nncc(-c4ccccc4)n3)o2)cc1
[15]
  EC50: 16.9 µM (active)
[16]
  EC50: 14.5 µM (active)

## CCc1nc(SCc2cccnc2)nc(O)c1C
[1]
  AC50: 0.563 µM (active)

## CC1(C)C(=O)N(CCN2CCC(C(=O)c3ccc(F)cc3)CC2)c2ccccc21
Cytochrome P450 2C9 [14]
  AC50: inconclusive

## Cc1ccc(SCc2ccc(C(=O)Nc3cc([N+](=O)[O-])ccc3C)cc2)cc1
Cytochrome P450 2D6
  AC50: 3.16 µM (inconclusive)
Cytochrome P450 3A4
  AC50: 8.91 µM (inconclusive)
Cytochrome P450 2C9 [14]
  AC50: inconclusive

## Cc1ccc2[nH]c(O)c(N=NC(=O)c3ccc(NS(=O)(=O)c4cccs4)cc3)c2c1
[4]
  EC50: 0.429 µM (active)
Streptokinase A
  EC50: > 150 µM (not active)
Streptococcus
  EC50: 16.3 µM (active)
[2]
  IC50: 11.5 µM (active)

## Cn1nc(C(F)(F)F)c(/C=N/OC(=O)c2ccc(Cl)cc2)c1Cl
Cytochrome P450 2C19
  AC50: 10 µM (inconclusive)
Cytochrome P450 2C9 [14]
  AC50: inconclusive

## Cc1cc(C)c2c(c1)-c1cc(C)nn1C(c1cccnc1)N2 (stereo not drawn)
[1]
  AC50: 1.77 µM (active)

## Cc1ccc(Cl)cc1N1CCN(CC(=O)NC2CCCc3ccccc32)CC1 (stereo not drawn)
[5]
  CC50: > 40 µM (active)
[17]
  AC50: 5.48 µM (active)

## COc1ccc(OC)c(NC(=O)CSc2sc3c(O)cc(=O)[nH]c3c2C#N)c1
[2]
  IC50: 5.22 µM (active)

## N#Cc1ccccc1S(=O)(=O)N1CCN(C(=O)c2cc3c(s2)CCC3)CC1
[2]
  IC50: 5.88 µM (active)

## O=C(CCN1CCOCC1)c1ccccc1
[15]
  EC50: 31.9 µM (active)
[16]
  EC50: 24.8 µM (active)

## Cn1cnc(C(=O)N2CCc3ccccc3C2)c1C(=O)N1CCc2ccccc2C1
[2]
  IC50: 4.36 µM (active)

## COC(=O)C1=C(C)N(Cc2ccccc2)C(NCc2cccc(Cl)c2)=N[C@H]1c1ccccc1
[5]
  CC50: 18.5 µM (active)
[17]
  AC50: 6.12 µM (active)
[6]
  IC50: > 20 µM (inactive)

## CCCCCC(=O)Nc1ccc(C(=O)N/N=C/c2ccc([N+](=O)[O-])cc2)cc1
[15]
  EC50: 3.92 µM (active)
[16]
  EC50: 4.99 µM (active)

## COc1cccc(CNC(=O)Nc2cccs2)c1
[1]
  AC50: 10.4 µM (active)

## COc1ccccc1N1CCN(C[C@@H]2CN3C(=O)N(C)c4ccccc4C3=N2)CC1
Cytochrome P450 1A2
  AC50: 31.6 µM (inconclusive)
Cytochrome P450 2C9 [14]
  AC50: inconclusive

## O=C(NCCN1CCOCC1)c1nn2c(c1Cl)NC(c1ccccc1)CC2C(F)(F)F (stereo not drawn)
[3]
  IC50: > 64 µM (inactive)
Cytochrome P450 2D6
  AC50: 35.5 µM (inconclusive)
Cytochrome P450 2C9 [18]
  AC50: 35.5 µM (inconclusive)

## Cc1ncc(CO)c(/C=N/NC(=O)c2cccc(S(=O)(=O)N3CCCC3)c2)c1O
[6]
  IC50: > 20 µM (inactive)
Nonstructural protein 1
  IC50: 4.73 µM (active)

## Cc1ccc(-c2ccc(/C=N\NC(=O)c3cc4c(ccc5ccccc54)o3)o2)cc1[N+](=O)[O-]
[15]
  EC50: 5.36 µM (active)
[16]
  EC50: 6.21 µM (active)

## O=C(Nc1cccc(Cl)c1)Nc1nc(-c2ccc(Cl)cc2)cs1
[15]
  EC50: 28.1 µM (active)
[16]
  EC50: 94.2 µM (active)

## CC1Cc2ccccc2N1C(=O)C1CCCCN1S(=O)(=O)c1ccccc1 (stereo not drawn)
Cytochrome P450 2C9 [14]
  AC50: inconclusive

## COc1ccc(/C=C/C(=O)Nc2cc(C(F)(F)F)ccc2Cl)cc1
Cytochrome P450 2C19
  AC50: 0.00631 µM (inconclusive)
Cytochrome P450 3A4
  AC50: 10 µM (inconclusive)
Cytochrome P450 2C9 [14]
  AC50: inconclusive
